From patent US6579881B2 (Eisai Co., Ltd., priority 1997, dated 2003)
Where a name gives a salt, the structure may show the parent alone. Read-outs that look alike come from different tables or passages of the source.

Legend:
α1 adrenalin receptor = test: Binding test on [3H] prazosin (α1 adrenalin receptor); design: species or system rat
serotonin 2 receptor = serotonin 2 receptor (Rattus norvegicus, UniProt P14842); test: Binding test on [3H] ketanserin (serotonin 2 receptor)
serotonin 1A receptor = target: T1, serotonin 1A receptor (Rattus norvegicus, UniProt P19327); test: Binding test on [3H] 8-hydroxy-dipropylaminotetralin (serotonin 1A receptor); settings: [3H] 8-OH-DPAT 0.5 nM, receptor fraction of rat hippocampus; read-out: 5HT1a
T1 construct: To the receptor fraction of the hippocampus were added a test compound and 0.5 nM of [^3H]; 8-hydroxy-dipropylaminotetralin; from tissue; host or cells: SD rat hippocampus, membrane (receptor) fraction
T1 sequence (P19327 1-422): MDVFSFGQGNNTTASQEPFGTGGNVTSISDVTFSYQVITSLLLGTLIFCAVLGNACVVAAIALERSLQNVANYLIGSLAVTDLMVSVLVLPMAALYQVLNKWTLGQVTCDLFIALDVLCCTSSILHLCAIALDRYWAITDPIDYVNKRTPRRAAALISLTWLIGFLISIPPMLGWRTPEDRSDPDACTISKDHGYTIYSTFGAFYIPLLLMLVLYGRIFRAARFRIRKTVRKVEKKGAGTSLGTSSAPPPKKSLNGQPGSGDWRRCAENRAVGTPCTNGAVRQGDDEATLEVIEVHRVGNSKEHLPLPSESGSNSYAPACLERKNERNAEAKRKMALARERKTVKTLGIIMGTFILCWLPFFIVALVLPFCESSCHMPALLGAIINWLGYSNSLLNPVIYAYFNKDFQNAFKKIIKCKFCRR

[1] = [3H] prazosin about 0.2 nM, receptor fraction of rat cerebral cortex
[2] = [3H] ketanserin 0.3 nM, receptor fraction of rat cerebral cortex, read-out: 5HT2

Sequence of serotonin 2 receptor (P14842 whole entry): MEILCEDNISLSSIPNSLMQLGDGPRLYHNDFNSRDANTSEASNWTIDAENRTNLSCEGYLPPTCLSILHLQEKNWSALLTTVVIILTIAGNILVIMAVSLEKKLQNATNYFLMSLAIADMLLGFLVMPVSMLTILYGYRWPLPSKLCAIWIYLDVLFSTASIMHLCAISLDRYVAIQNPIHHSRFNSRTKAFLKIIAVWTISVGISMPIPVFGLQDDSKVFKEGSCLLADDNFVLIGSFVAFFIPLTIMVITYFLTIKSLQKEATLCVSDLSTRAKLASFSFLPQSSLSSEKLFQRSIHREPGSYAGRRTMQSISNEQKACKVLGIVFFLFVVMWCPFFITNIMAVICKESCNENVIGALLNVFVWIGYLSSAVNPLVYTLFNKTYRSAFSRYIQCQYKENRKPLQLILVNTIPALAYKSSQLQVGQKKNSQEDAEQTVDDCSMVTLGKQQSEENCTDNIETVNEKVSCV

SMILES	melting point	Ki (α1 adrenalin receptor; [1]) [nM]	Ki (serotonin 2 receptor; [2]) [nM]	Ki (serotonin 1A receptor) [nM]	Ki (α1 adrenalin receptor) [nM]	Ki (serotonin 2 receptor) [nM]
COc1ccc2c(c1)N(C1CCN(CCc3ccc(F)cc3)CC1)C(C)(C)C2 (as salt: oxalate) [Example 396, 2,2-Dimethyl-1-[1-(4-fluorophenethyl)piperidin-4-yl]-6-methoxyindoline]	228 °C (dec.)					
O=C(CCO)NCc1ccc2ccn(C3CCN(CCc4ccc(F)cc4)CC3)c2c1 [Example 369, 1-[1-(4-fluorophenethyl)piperidin-4-yl]-6-(3-hydroxypropionylamino)methylindole]		121	2.88	2.02		
CCNC(=O)CCc1ccc2ccn(C3CCN(CCc4ccc(F)cc4)CC3)c2c1 [Example 311, 1-[1-(4-fluorophenethyl)piperidin-4-yl]-6-[2-(ethylcarbamoyl)ethyl]indole Oxalate]		85	46.4	1.08		
O=C(Cc1ccc2ccn(C3CCN(CCc4ccc(F)cc4)CC3)c2c1)NCc1ccccn1 [Example 341, 1-[1-(4-fluorophenethyl)piperidin-4-yl]-6-(pyridin-2-yl)methylcarbamoylmethylindole Oxalate]		47.6	0.67	2.08		
Fc1ccc(CCCN2CCC(N3CCc4ccccc43)CC2)cc1 [Example 13, 1-[1-(4-fluorophenylpropyl)piperidin-4-yl]indoline]		188	> 200	24.2		
CNOOSCc1ccc2c(c1)N(C1CCN(CCc3ccc(F)cc3)CC1)CC2 [Example 164, 1-[1-(4-fluorophenethyl)piperidin-4-yl]-6-(N-methylsulfamoylmethyl)indoline]		638	34.1	0.54		
O=C(CN1CCCCC1)NCc1ccc2ccn(C3CCN(CCc4ccc(F)cc4)CC3)c2c1 [Example 376, 1-[1-(4-fluorophenethyl)piperidin-4-yl]-6-[(piperidin-1-yl)acetamido]methylindole]		46.7	2.1	0.91		
COc1ccc2c(c1)N(C1CCCN(CCc3ccc(F)cc3)CC1)CC2 (centres unmarked) [Example 291, 1-[1-(4-fluorophenethyl)homopiperidin-4-yl]-6-methoxyindoline]		172	101	6.9		
Fc1ccc(CCN2CCN(C3CCCc4cnccc43)CC2)cc1 (centres unmarked) [Example 283, 5-{4-[2-(4-fluorophenyl)ethyl]piperazin-1-yl}-5,6,7,8-tetrahydroisoquinoline Hydrochloride]			40.9	39.5	197	
CN(c1ccc2ccn(C3CCN(CCc4ccc(F)cc4)CC3)c2c1)S(C)(=O)=O [Example 335]		28.4		0.22		> 20
COc1ccc2c(c1)C(N1CCN(CCc3ccc(F)cc3)CC1)CC2 (centres unmarked) [Example 250, 1-{4-[2-(4-fluorophenyl)ethyl]piperazin-1-yl}-6-methoxyindan Hydrochloride]			18.8	1.6	263	
CCC(O)c1ccc2ccn(C3CCN(CCc4ccc(F)cc4)CC3)c2c1 (centres unmarked) [Example 319, 1-[1-(4-fluorophenethyl)piperidin-4-yl]-6-(1-hydroxyproyl)indole Oxalate]		42.5	24.5	0.56		
CC(=O)N(C)Cc1ccc2ccn(C3CCN(CCc4ccc(F)cc4)CC3)c2c1 [Example 359, 1-[1-(4-fluorophenethyl)piperidin-4-yl]-6-N-methylacetamidomethylindole]		75.9	7.39	0.71		
CC(=O)NCc1ccc2ccn(C3CCN(CCc4ccc(C(C)O)cc4)CC3)c2c1 (centres unmarked) [Example 388, 1-{4-[(1-hydroxyethyl)phenethyl]piperidin-4-yl}-6-acetamidomethylindole]		366	> 20	2.26		
O=C(Cc1ccc2ccn(C3CCN(CCc4ccc(F)cc4)CC3)c2c1)N(CCO)CCO [Example 303, 1-[1-(4-fluorophenethyl)piperidin-4-yl]-6-[bis(2-hydroxyethyl)]carbamoylmethylindole Oxalate]		307	35.8	3.6		
O=C(CCN1CCCCC1)NCc1ccc2ccn(C3CCN(CCc4ccc(F)cc4)CC3)c2c1 [Example 379, 1-[1-(4-fluorophenethyl)piperidin-4-yl]-6-[3-(piperidin-1-yl)propionylamino]methylindole]		30.3	1.25	9.65		
CC(=O)NCc1ccc2c(C=O)cn(C3CCN(CCc4ccc(F)cc4)CC3)c2c1 [Example 370, 1-[1-(4-fluorophenethyl)piperidin-4-yl]-3-formyl-6-acetamidomethylindole]		256	> 20	> 20		

Continued, in another order:

melting point	Ki (α1 adrenalin receptor; [1]) [nM]	Ki (serotonin 2 receptor; [2]) [nM]	Ki (serotonin 1A receptor) [nM]	SMILES	Ki (α1 adrenalin receptor) [nM]	Ki (serotonin 2 receptor) [nM]
192 to 194 °C				CCS(=O)(=O)Nc1ccc2ccn(C3CCN(CCc4ccc(F)cc4)CC3)c2c1 [Example 335, 1-[1-(4-fluorophenethyl)piperidin-4-yl]-6-(N-methylmethanesulfonylamino)indole]		
213 to 215 °C (dec.)				OCCOc1ccc2c(c1)CCCC2C1CCN(CCc2ccc(F)cc2)CC1 (centres unmarked) (as salt: hydrochloride) [Example 278, 1-[2-(4-fluorophenyl)ethyl]-4-[6-(2-hydroxy)ethoxy-1,2,3,4-tetrahydronaphthalen-1-yl]piperidine]		
196 to 198 °C				CCN1CCN([C@@H]2c3ccccc3CC2N(C)Cc2ccc(F)cc2)CC1 (some centres unmarked) (as salt: hydrochloride) [Example 254]		
103 to 106 °C				CC(=O)NCc1ccc2ccn(C3CCN(CCc4ccc(F)cc4F)CC3)c2c1 (as salt: oxalate) [Example 357, 1-[1-(2,4-difluorophenethyl)piperidin-4-yl]-6-acetamidomethylindole]		
	340	2.84	3.02	O=C(Cc1ccc2ccn(C3CCN(CCc4ccc(F)cc4)CC3)c2c1)NCC(O)CO (centres unmarked) [Example 340, 1-[1-(4-fluorophenethyl)piperidin-4-yl]-6-(1,2-dihydroxypropan-3-yl)carbamoylmethylindole Oxalate]		
	148	3.87	2.82	NC(=O)CNC(=O)Cc1ccc2ccn(C3CCN(CCc4ccc(F)cc4)CC3)c2c1 [Example 306, 1-[1-(4-fluorophenethyl)piperidin-4-yl]-6-(carbamoylmethyl)carbamoylmethylindole Oxalate]		
	61.4	3.37	1.56	CN(C)CC(=O)NCc1ccc2ccn(C3CCN(CCc4ccc(F)cc4)CC3)c2c1 [Example 375, 1-[1-(4-fluorophenethyl)piperidin-4-yl]-6-(N,N-dimethylaminoacetamido)methylindole]		
	26.2	> 20	63.5	CC(=O)NCc1ccc2c(C#N)cn(C3CCN(CCc4ccc(F)cc4)CC3)c2c1 [Example 387, 3-cyano-1-[1-(4-fluorophenethyl)piperidin-4-yl]-6-acetamidomethylindole]		
	147	27.9	5.7	Fc1ccc(CCN2CCC(N3CCc4ccccc43)CC2)cc1F [Example 11, 1-[1-(3,4-difluorophenethyl)piperidin-4-yl]indoline]		
	167	> 20	0.4	O=S1(=O)CCCN1Cc1ccc2ccn(C3CCN(CCc4ccc(F)cc4)CC3)c2c1 [Example 326, 1-[1-(4-fluorophenethyl)piperidin-4-yl]-6-(1,3-propanesultam-2-yl)methylindole]		
	400	> 20	0.76	COc1ccc(C(=O)c2ccc3ccn(C4CCN(CCc5ccc(F)cc5)CC4)c3c2)cn1 [Example 317, 1-[1-(4-fluorophenethyl)piperidin-4-yl]-6-(2-methoxypyridin-5-ylcarbonyl)indole Oxalate]		
	37.6	0.56	1.63	O=C(NCc1ccc2ccn(C3CCN(CCc4ccc(F)cc4)CC3)c2c1)n1ccnc1 [Example 368, 1-[1-(4-fluorophenethyl)piperidin-4-yl]-6-imidazocarbonylaminomethylindole]		
	144	1.58	13.1	O=C(Cc1ccc2ccn(C3CCN(CCc4ccc(F)cc4)CC3)c2c1)NCCN1CCOCC1 [Example 313, 1-[1-(4-fluorophenethyl)piperidin-4-yl]-6-[2-(morpholin-4-yl)ethyl]carbamoylmethylindole Oxalate]		
	55.5	7	8.8	COc1cccc(CCN2CCC(N3CCc4ccccc43)CC2)c1 [Example 19, 1-[1-(3-methoxyphenethyl)piperidin-4-yl]indoline]		
	25	38.1	0.65	CC(O)c1ccc2ccn(C3CCN(CCc4ccc(F)cc4)CC3)c2c1 (centres unmarked) [Example 392, 1-[1-(4-fluorophenethyl)piperidin-4-yl]-6-(1-hydroxyethyl)indole Oxalate]		
	244	21.8	15	CS(=O)(=O)NCc1ccc(CCN2CCC(N3CCc4ccccc43)CC2)cc1 [Example 38, 1-[1-(4-methanesulfonylaminomethylphenethyl)piperidin-4-yl]indoline]		
